{
  "source": "the supplement of paper PMC10307832",
  "test_in_all_cases": "relative viability (nuclei count vs DMSO), 5 days (fraction); higher = more cells survive",
  "key": {"[1]": {"compound": "C[As](C)SC[C@H](NC(=O)CC[C@H](N)C(=O)O)C(=O)NCC(=O)O [Darinaparsin] + Nc1nc2[nH]cc(CCc3ccc(C(=O)N[C@@H](CCC(=O)O)C(=O)O)cc3)c2c(=O)[nH]1 [Pemetrexed] (partner 0.2 µM)", "outline": "(§1)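 A single step with final 0.05% Triton X-100, 1% formaldehyde and 1 ug/ml Hoechst fixed the cells and stained nuclei 5 days after treatment. Lung cancer cell lines in 1536-well plates had been treated by pin tool the day after seeding with one drug alone or a fixed anchor-drug dose plus five library-drug doses (not always all listed) in √10 steps, and nuclei were counted on 4× images. Relative viability is the ratio of nuclei in treated wells to nuclei in vehicle wells, taken as the median of duplicate plates.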"}, "Darinaparsin + Olaparib": {"compound": "C[As](C)SC[C@H](NC(=O)CC[C@H](N)C(=O)O)C(=O)NCC(=O)O [Darinaparsin] + O=C(c1cc(Cc2n[nH]c(=O)c3ccccc23)ccc1F)N1CCN(C(=O)C2CC2)CC1 [Olaparib] (partner 8 µM)", "outline": "as §1"}, "Darinaparsin + Alpelisib": {"compound": "C[As](C)SC[C@H](NC(=O)CC[C@H](N)C(=O)O)C(=O)NCC(=O)O [Darinaparsin] + Cc1nc(NC(=O)N2CCC[C@H]2C(N)=O)sc1-c1ccnc(C(C)(C)C(F)(F)F)c1 [Alpelisib] (partner 2 µM)", "outline": "as §1"}, "QS11 + OSI-027": {"compound": "C1CC2=C(C1)C=C(C=C2)OC3=NC(=C4C(=N3)N(C=N4)CC5=CC=C(C=C5)C6=CC=CC=C6)N[C@@H](CC7=CC=CC=C7)CO [QS11] + COc1cccc2cc(-c3nc([C@H]4CC[C@H](C(=O)O)CC4)n4ncnc(N)c34)[nH]c12 [OSI-027] (partner 0.5 µM)", "outline": "as §1"}},
  "data": [
    {"cell line": "LCLC-97TM1", "values": [
      {"measurement": "relative viability", "setting": "[1]; first compound 0.08 µM", "value": 0.162},
      {"measurement": "relative viability", "setting": "[1]; first compound 0.8 µM", "value": 0.177},
      {"measurement": "relative viability", "setting": "[1]; first compound 2.53 µM", "value": 0.166},
      {"measurement": "relative viability", "setting": "[1]; first compound 8 µM", "value": 0.185},
      {"measurement": "relative viability", "setting": "Darinaparsin + Olaparib; first compound 0.08 µM", "value": 0.599},
      {"measurement": "relative viability", "setting": "Darinaparsin + Olaparib; first compound 0.8 µM", "value": 0.303},
      {"measurement": "relative viability", "setting": "Darinaparsin + Olaparib; first compound 2.53 µM", "value": 0.404},
      {"measurement": "relative viability", "setting": "Darinaparsin + Olaparib; first compound 8 µM", "value": 0.612},
      {"measurement": "relative viability", "setting": "Darinaparsin + Alpelisib; first compound 0.08 µM", "value": 0.244},
      {"measurement": "relative viability", "setting": "Darinaparsin + Alpelisib; first compound 0.8 µM", "value": 0.237},
      {"measurement": "relative viability", "setting": "Darinaparsin + Alpelisib; first compound 2.53 µM", "value": 0.19},
      {"measurement": "relative viability", "setting": "Darinaparsin + Alpelisib; first compound 8 µM", "value": 0.26},
      {"measurement": "relative viability", "setting": "QS11 + OSI-027; first compound 0.08 µM", "value": 0.405},
      {"measurement": "relative viability", "setting": "QS11 + OSI-027; first compound 0.253 µM", "value": 0.698},
      {"measurement": "relative viability", "setting": "QS11 + OSI-027; first compound 2.53 µM", "value": 0.565},
      {"measurement": "relative viability", "setting": "QS11 + OSI-027; first compound 8 µM", "value": 0.588}
    ]}
  ]
}
